Experimental data from PubChem BioAssay (NCI).
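Compound exposure: 48 hours, 5 concentrations, 96-well plates. The concentration for full growth arrest is given as TGI.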

Legend:
Assay in all cases: DTP human tumour cell line panel, 48 h
NCI-H460 lung = test system: NCI-H460 lung
T-47D breast = test system: T-47D breast
M14 melanoma = test system: M14 melanoma
IGROV1 ovarian = test system: IGROV1 ovarian
MOLT-4 leukemia = test system: MOLT-4 leukemia
RXF 393 renal = test system: RXF 393 renal
OVCAR-5 ovarian = test system: OVCAR-5 ovarian
HCT-116 colon = test system: HCT-116 colon
SN12C renal = test system: SN12C renal
HOP-62 NSCLC = test system: HOP-62 NSCLC
NCI-H23 lung = test system: NCI-H23 lung
NCI-H226 lung = test system: NCI-H226 lung
UACC-62 melanoma = test system: UACC-62 melanoma
TK-10 renal = test system: TK-10 renal
MDA-N = test system: MDA-N
MALME-3M melanoma = test system: MALME-3M melanoma
OVCAR-8 ovarian = test system: OVCAR-8 ovarian
SF-268 CNS = test system: SF-268 CNS
KM12 colon = test system: KM12 colon
786-0 renal = test system: 786-0 renal
MCF7 breast = test system: MCF7 breast
HCT-15 colon = test system: HCT-15 colon
HS 578T breast = test system: HS 578T breast
SNB-75 CNS = test system: SNB-75 CNS
HOP-92 NSCLC = test system: HOP-92 NSCLC
LOX IMVI melanoma = test system: LOX IMVI melanoma
PC-3 prostate = test system: PC-3 prostate
SNB-19 CNS = test system: SNB-19 CNS
U251 CNS = test system: U251 CNS
UO-31 renal = test system: UO-31 renal
HL-60(TB) leukemia = test system: HL-60(TB) leukemia
MDA-MB-435 = test system: MDA-MB-435
SK-MEL-28 melanoma = test system: SK-MEL-28 melanoma
NCI-H522 lung = test system: NCI-H522 lung
K-562 leukemia = test system: K-562 leukemia
A549 NSCLC = test system: A549 NSCLC
SW-620 colon = test system: SW-620 colon
HCC-2998 colon = test system: HCC-2998 colon
CCRF-CEM leukemia = test system: CCRF-CEM leukemia
EKVX NSCLC = test system: EKVX NSCLC
SK-OV-3 ovarian = test system: SK-OV-3 ovarian
SF-295 CNS = test system: SF-295 CNS
SR leukemia = test system: SR leukemia
CAKI-1 renal = test system: CAKI-1 renal
HT29 colon = test system: HT29 colon
OVCAR-4 ovarian = test system: OVCAR-4 ovarian
ACHN renal = test system: ACHN renal
A498 renal = test system: A498 renal
RPMI-8226 leukemia = test system: RPMI-8226 leukemia
MDA-MB-231 breast = test system: MDA-MB-231 breast
OVCAR-3 ovarian = test system: OVCAR-3 ovarian
SK-MEL-5 melanoma = test system: SK-MEL-5 melanoma
NCI/ADR-RES ovarian = test system: NCI/ADR-RES ovarian
UACC-257 melanoma = test system: UACC-257 melanoma
SF-539 CNS = test system: SF-539 CNS
COLO 205 colon = test system: COLO 205 colon
DU-145 prostate = test system: DU-145 prostate

CCCCCCCCCc1c(Cl)nc(Cl)nc1Cl
TGI (NCI-H460 lung): 37.4 µM
TGI (T-47D breast): 27 µM
TGI (M14 melanoma): 11 µM
TGI (IGROV1 ovarian): 26.6 µM
TGI (MOLT-4 leukemia): 5.18 µM
TGI (RXF 393 renal): 32.3 µM
TGI (OVCAR-5 ovarian): 35.9 µM
TGI (HCT-116 colon): 27.9 µM
TGI (SN12C renal): 26.8 µM
TGI (HOP-62 NSCLC): 37.5 µM
TGI (NCI-H23 lung): 25.7 µM
TGI (NCI-H226 lung): 20.1 µM
TGI (UACC-62 melanoma): 38.8 µM
TGI (TK-10 renal): 37.8 µM
TGI (MDA-N): 32.2 µM
TGI (MALME-3M melanoma): 25.6 µM
TGI (OVCAR-8 ovarian): 32.1 µM
TGI (SF-268 CNS): 34.6 µM
TGI (KM12 colon): > 65 µM
TGI (786-0 renal): 27.8 µM
TGI (MCF7 breast): 36.5 µM
TGI (HCT-15 colon): 27.5 µM
TGI (HS 578T breast): 58.3 µM
TGI (SNB-75 CNS): 29.6 µM
TGI (HOP-92 NSCLC): 29.4 µM
TGI (LOX IMVI melanoma): 4.34 µM
TGI (PC-3 prostate): 29.8 µM
TGI (SNB-19 CNS): 30.8 µM
TGI (U251 CNS): 33 µM
TGI (UO-31 renal): 32.2 µM
TGI (HL-60(TB) leukemia): 18.2 µM
TGI (MDA-MB-435): 26.7 µM
TGI (SK-MEL-28 melanoma): 35.7 µM
TGI (NCI-H522 lung): 12.1 µM
TGI (K-562 leukemia): 19.4 µM
TGI (A549 NSCLC): 37.6 µM
TGI (SW-620 colon): 26.3 µM
TGI (HCC-2998 colon): 8.89 µM
TGI (CCRF-CEM leukemia): 5.79 µM
TGI (EKVX NSCLC): 38.2 µM
TGI (SK-OV-3 ovarian): 36.4 µM
TGI (SF-295 CNS): 39.3 µM
TGI (SR leukemia): 7.93 µM
TGI (CAKI-1 renal): 12.1 µM
TGI (HT29 colon): 34 µM
TGI (OVCAR-4 ovarian): 28.9 µM
TGI (ACHN renal): 33.7 µM
TGI (A498 renal): 34 µM
TGI (RPMI-8226 leukemia): 37.5 µM
TGI (MDA-MB-231 breast): 25 µM
TGI (OVCAR-3 ovarian): 32 µM
TGI (SK-MEL-5 melanoma): 25.6 µM
TGI (NCI/ADR-RES ovarian): 35.8 µM
TGI (UACC-257 melanoma): 34.6 µM
TGI (SF-539 CNS): 32.6 µM
TGI (COLO 205 colon): 37.7 µM
TGI (DU-145 prostate): 31.2 µM
